Laboratory results taken from patent publication US10765114B2, “4-amino-6-(pyridyl and 2-substitutedphenyl)-picolinates and 6-amino-2-(pyridyl and 2-substitutedphenyl)-pyrimidine-4-carboxylates and their use as herbicides” (Dow AgroSciences LLC, priority 2013, dated 2020).
Read-outs that look alike come from different tables or passages of the source.

Assays:
[1] = system: Key Broadleaf Weed and Crop Species; assay: Post-Emergent Test II (Table 5); assay type: in vivo; settings: post-emergence, 336 h; for pest or weed control at 70 g/ha: application rate 70 (kg ai/ha; footnote: g ai/ha); for pest or weed control at 140 g/ha: application rate 140 (kg ai/ha; footnote: g ai/ha)
In short: (§1)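 Plants grown in a greenhouse (~15 h photoperiod, 23-29° C day) to first or second true leaf stage were sprayed post-emergence at 187 L/ha with compound in acetone/DMSO-based aqueous spray containing crop oil concentrate and surfactant, applied at a high rate plus ½× to 1/16× serial rates. Injury was scored visually 14 days later, 0-100% versus untreated plants.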

[2] = system: Key Grass and Sedge Weeds as well as Grass Crops; assay: Post-Emergent Test II (Table 6); assay type: in vivo; settings: post-emergence, 336 h, 14 days after application; for pest or weed control at 70 g/ha: 70 g ai/ha; for pest or weed control at 140 g/ha: 140 g ai/ha
In short: as §1

[3] = Abutilon theophrasti, ABUTH: velvetleaf (Abutilon theophrasti), read-out: Visual Growth Reduction (%) 14 Days After Application ABUTH
[4] = Amaranthus retroflexus, AMARE: redroot pigweed (Amaranthus retroflexus), read-out: Visual Growth Reduction (%) 14 Days After Application AMARE
[5] = Brassica napus, BRSSS: oilseed rape, canola (Brassica napus), read-out: Visual Growth Reduction (%) 14 Days After Application BRSSS
[6] = Chenopodium album, CHEAL: lambsquarters (Chenopodium album), read-out: Visual Growth Reduction (%) 14 Days After Application CHEAL
[7] = Euphorbia heterophylla, EPHHL: wild poinsettia (Euphorbia heterophylla), read-out: Visual Growth Reduction (%) 14 Days After Application EPHHL
[8] = Helianthus annuus, HELAN: sunflower (Helianthus annuus), read-out: Visual Growth Reduction (%) 14 Days After Application HELAN
[9] = Viola tricolor, VIOTR: wild pansy (Viola tricolor), read-out: Visual Growth Reduction (%) 14 Days After Application VIOTR
[10] = CYPSS, read-out: Visual Growth Reduction (%) 14 Days After Application CYPSS
[11] = DIGSA: crabgrass (Digitaria sanguinalis), read-out: Visual Growth Reduction (%) 14 Days After Application DIGSA
[12] = ECHSS, read-out: Visual Growth Reduction (%) 14 Days After Application ECHSS
[13] = ORYSS (crop), read-out: Visual Growth Reduction (%) 14 Days After Application ORYSS
[14] = SETFA: giant foxtail (Setaria faberi), read-out: Visual Growth Reduction (%) 14 Days After Application SETFA
[15] = SORVU: grain sorghum (Sorghum vulgare), read-out: Visual Growth Reduction (%) 14 Days After Application SORVU
[16] = TRZSS (crop), read-out: Visual Growth Reduction (%) 14 Days After Application TRZSS
[17] = ZEAMX: maize, corn (Zea mays), read-out: Visual Growth Reduction (%) 14 Days After Application ZEAMX

Cc1ccc(-c2nc(C(=O)O)c(Cl)c(N)c2F)cn1 [Compound 85]
30 to 44%: pest or weed control at 70 g/ha [1, 8]
75 to 84%: pest or weed control at 140 g/ha [1, 5]
45 to 59%: pest or weed control at 140 g/ha [1, 6] | pest or weed control at 140 g/ha [1, 8] | pest or weed control at 70 g/ha [2, 12]
95 to 100%: pest or weed control at 70 g/ha [1, 4] | pest or weed control at 140 g/ha [1, 4]
186 to 187 °C: melting point
60 to 74%: pest or weed control at 70 g/ha [1, 5]
0 to 29%: pest or weed control at 70 g/ha [1, 3] | pest or weed control at 140 g/ha [1, 3] | pest or weed control at 70 g/ha [1, 6] | pest or weed control at 70 g/ha [1, 7] | pest or weed control at 140 g/ha [1, 7] | pest or weed control at 70 g/ha [1, 9] | pest or weed control at 140 g/ha [1, 9] | pest or weed control at 70 g/ha [2, 10] | pest or weed control at 140 g/ha [2, 10] | pest or weed control at 70 g/ha [2, 11] | pest or weed control at 140 g/ha [2, 11] | pest or weed control at 70 g/ha [2, 13] | pest or weed control at 140 g/ha [2, 13] | pest or weed control at 70 g/ha [2, 14] | pest or weed control at 140 g/ha [2, 14] | pest or weed control at 70 g/ha [2, 15] | pest or weed control at 140 g/ha [2, 15] | pest or weed control at 70 g/ha [2, 16] | pest or weed control at 140 g/ha [2, 16] | pest or weed control at 70 g/ha [2, 17] | pest or weed control at 140 g/ha [2, 17]

COC(=O)c1nc(-c2ccc(Cl)c(F)c2C)nc(N)c1OC [Compound 63]
0 to 29%: pest or weed control at 70 g/ha [1, 3] | pest or weed control at 140 g/ha [1, 3] | pest or weed control at 70 g/ha [1, 7] | pest or weed control at 140 g/ha [1, 7] | pest or weed control at 70 g/ha [1, 9] | pest or weed control at 140 g/ha [1, 9] | pest or weed control at 70 g/ha [2, 10] | pest or weed control at 140 g/ha [2, 10] | pest or weed control at 70 g/ha [2, 11] | pest or weed control at 140 g/ha [2, 11] | pest or weed control at 70 g/ha [2, 12] | pest or weed control at 140 g/ha [2, 12] | pest or weed control at 70 g/ha [2, 13] | pest or weed control at 140 g/ha [2, 13] | pest or weed control at 70 g/ha [2, 14] | pest or weed control at 140 g/ha [2, 14] | pest or weed control at 70 g/ha [2, 15] | pest or weed control at 140 g/ha [2, 15] | pest or weed control at 70 g/ha [2, 16] | pest or weed control at 140 g/ha [2, 16] | pest or weed control at 70 g/ha [2, 17] | pest or weed control at 140 g/ha [2, 17]
85 to 94%: pest or weed control at 70 g/ha [1, 4] | pest or weed control at 140 g/ha [1, 4] | pest or weed control at 70 g/ha [1, 6] | pest or weed control at 140 g/ha [1, 6]
45 to 59%: pest or weed control at 140 g/ha [1, 5]
75 to 84%: pest or weed control at 70 g/ha [1, 8] | pest or weed control at 140 g/ha [1, 8]
30 to 44%: pest or weed control at 70 g/ha [1, 5]

COC(=O)c1nc(-c2ccc(Cl)c(F)c2C(=O)O)cc(N)c1Cl [Compound 91, 6-(4-amino-5-chloro-6-(methoxycarbonyl)pyridin-2-yl)-3-chloro-2-fluorobenzoic acid]
0 to 29%: pest or weed control at 70 g/ha [1, 3] | pest or weed control at 140 g/ha [1, 3] | pest or weed control at 70 g/ha [1, 4] | pest or weed control at 140 g/ha [1, 4] | pest or weed control at 70 g/ha [1, 5] | pest or weed control at 140 g/ha [1, 5] | pest or weed control at 70 g/ha [1, 6] | pest or weed control at 140 g/ha [1, 6] | pest or weed control at 70 g/ha [1, 7] | pest or weed control at 140 g/ha [1, 7] | pest or weed control at 70 g/ha [1, 8] | pest or weed control at 140 g/ha [1, 8] | pest or weed control at 70 g/ha [1, 9] | pest or weed control at 140 g/ha [1, 9] | pest or weed control at 70 g/ha [2, 10] | pest or weed control at 140 g/ha [2, 10] | pest or weed control at 70 g/ha [2, 11] | pest or weed control at 140 g/ha [2, 11] | pest or weed control at 70 g/ha [2, 12] | pest or weed control at 140 g/ha [2, 12] | pest or weed control at 70 g/ha [2, 13] | pest or weed control at 140 g/ha [2, 13] | pest or weed control at 70 g/ha [2, 14] | pest or weed control at 140 g/ha [2, 14] | pest or weed control at 70 g/ha [2, 15] | pest or weed control at 140 g/ha [2, 15] | pest or weed control at 70 g/ha [2, 16] | pest or weed control at 140 g/ha [2, 16] | pest or weed control at 70 g/ha [2, 17] | pest or weed control at 140 g/ha [2, 17]

Cc1c(-c2nc(C(=O)O)c(Cl)c(N)c2F)ccc(C(F)(F)F)c1F [Compound 55]
45 to 59%: pest or weed control at 70 g/ha [1, 3] | pest or weed control at 140 g/ha [1, 3] | pest or weed control at 140 g/ha [1, 5] | pest or weed control at 140 g/ha [1, 7] | pest or weed control at 70 g/ha [2, 17] | pest or weed control at 140 g/ha [2, 17]
30 to 44%: pest or weed control at 70 g/ha [1, 5]
85 to 94%: pest or weed control at 140 g/ha [1, 6] | pest or weed control at 70 g/ha [1, 8]
60 to 74%: pest or weed control at 70 g/ha [1, 6]
0 to 29%: pest or weed control at 70 g/ha [1, 4] | pest or weed control at 140 g/ha [1, 4] | pest or weed control at 70 g/ha [1, 7] | pest or weed control at 70 g/ha [1, 9] | pest or weed control at 140 g/ha [1, 9] | pest or weed control at 70 g/ha [2, 10] | pest or weed control at 140 g/ha [2, 10] | pest or weed control at 70 g/ha [2, 11] | pest or weed control at 140 g/ha [2, 11] | pest or weed control at 70 g/ha [2, 12] | pest or weed control at 140 g/ha [2, 12] | pest or weed control at 70 g/ha [2, 13] | pest or weed control at 140 g/ha [2, 13] | pest or weed control at 70 g/ha [2, 15] | pest or weed control at 140 g/ha [2, 15] | pest or weed control at 70 g/ha [2, 16] | pest or weed control at 140 g/ha [2, 16]
95 to 100%: pest or weed control at 140 g/ha [1, 8]
